Assay results from patent US20110028566A1, “COMPOSITIONS AND PRODUCTS CONTAINING CYCLOALIPHATIC DIOL ANTIMICROBIAL AGENTS AND METHODS OF USING THE COMPOSITIONS AND PRODUCTS” (EASTMAN CHEMICAL COMPANY, priority 2009, published 2011).

What was measured:
Assay in all cases: Microbial challenge testing in BPW
Assay type in all cases: cell-based
Proteus vulgaris = settings: for Grade code, P. vulgaris, 3 Days / Grade code, P. vulgaris, 13 Days / Grade code, P. vulgaris, 30 Day: BPW, w/v % in label, average of replicates
Procedure, shortened: (§1)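 Each organism, grown in TSB with 1% dextrose 96 h or more at 35 °C, was inoculated to 10^5–10^6 cfu/mL into BPW (pH 7.0, 1% dextrose) containing test materials at set w/v %. Broth-alone controls were run. Tubes were held 14 days at 35 °C, then at room temperature.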

Staphylococcus aureus = settings: for Grade code, S. aureus, 3 Day / Grade code, S. aureus, 14 Day / Grade code, S. aureus, 30 Day: BPW, w/v % in label, average of replicates
Procedure, shortened: as §1

Bacillus subtilis = settings: for Grade code, B. subtilis, 3 Day / Grade code, B. subtilis, 14 Day / Grade code, B. subtilis, 30 Days: BPW, w/v % in label, average of replicates
Procedure, shortened: as §1

Burkholderia cepacia = settings: for Grade code, B. cepacia, 3 Days / Grade code, B. cepacia, 14 Days / Grade code, B. cepacia, 30 Days: BPW, w/v % in label, average of replicates
Procedure, shortened: as §1

[1] = 3 days incubation, listed as 0.5% AB
[2] = 3 days incubation, listed as 1.25% AB
[3] = 3 days incubation, listed as 2.5% AB
[4] = 30 days incubation, listed as 0.5% AB
[5] = 30 days incubation, listed as 1.25% AB
[6] = 30 days incubation, listed as 2.5% AB
[7] = 14 days incubation, listed as 0.5% AB
[8] = 14 days incubation, listed as 1.25% AB
[9] = 14 days incubation, listed as 2.5% AB

With `OCC1CCC(CO)CC1` (stereo not drawn) [1,4-CHDM, 1,4-cyclohexanedimethanol] the “Grade code P. vulqaris” value (Proteus vulgaris; 0.5%, 3 days incubation) was 4 (1001 to 10,000 colonies (thus 10,000 cfu/mL to 100,000 cfu/mL)), the “Grade code P. vulqaris” value (Proteus vulgaris; 0.5%, 13 days incubation) was 4 (1001 to 10,000 colonies (thus 10,000 cfu/mL to 100,000 cfu/mL)) and the “Grade code P. vulqaris” value (Proteus vulgaris; 0.5%, 30 days incubation) was 4 (1001 to 10,000 colonies (thus 10,000 cfu/mL to 100,000 cfu/mL)). For the same molecule, the “Grade code P. vulqaris” value (Proteus vulgaris; 1.25%, 3 days incubation) was 3 (101 to 1000 colonies (thus 1000 to 10,000 cfu/mL)), the “Grade code P. vulqaris” value (Proteus vulgaris; 1.25%, 13 days incubation) was 2 (52 to 100 colonies counted (thus 520 to 1000 cfu/mL)) and the “Grade code P. vulqaris” value (Proteus vulgaris; 1.25%, 30 days incubation) was 0 (No growth detected or <1 colony (thus <10 cfu/mL)). For the same molecule, the “Grade code P. vulqaris” value (Proteus vulgaris; 2.5%, 3 days incubation) was 1 (1 to 51 colonies counted (thus 10 to 510 cfu/mL)), the “Grade code P. vulqaris” value (Proteus vulgaris; 2.5%, 13 days incubation) was 0 (No growth detected or <1 colony (thus <10 cfu/mL)) and the “Grade code P. vulqaris” value (Proteus vulgaris; 2.5%, 30 days incubation) was 0 (No growth detected or <1 colony (thus <10 cfu/mL)). The “Grade code, P. vulgaris, 3 Days” value (Proteus vulgaris; [1]) was 4 (1001 to 10,000 colonies (thus 10,000 cfu/mL to 100,000 cfu/mL)), the “Grade code, P. vulgaris, 3 Days” value (Proteus vulgaris; [2]) was 3 (101 to 1000 colonies (thus 1000 to 10,000 cfu/mL)) and the “Grade code, P. vulgaris, 3 Days” value (Proteus vulgaris; [3]) was 1 (1 to 51 colonies counted (thus 10 to 510 cfu/mL)). The “Grade code, P. vulgaris, 13 Days” value (Proteus vulgaris; 13 days incubation, listed as 0.5% AB) was 4 (1001 to 10,000 colonies (thus 10,000 cfu/mL to 100,000 cfu/mL)), the “Grade code, P. vulgaris, 13 Days” value (Proteus vulgaris; 13 days incubation, listed as 1.25% AB) was 2 (52 to 100 colonies counted (thus 520 to 1000 cfu/mL)) and the “Grade code, P. vulgaris, 13 Days” value (Proteus vulgaris; 13 days incubation, listed as 2.5% AB) was 0 (No growth detected or <1 colony (thus <10 cfu/mL)). The “Grade code, P. vulgaris, 30 Day” value (Proteus vulgaris; [4]) was 4 (1001 to 10,000 colonies (thus 10,000 cfu/mL to 100,000 cfu/mL)), the “Grade code, P. vulgaris, 30 Day” value (Proteus vulgaris; [5]) was 0 (No growth detected or <1 colony (thus <10 cfu/mL)) and the “Grade code, P. vulgaris, 30 Day” value (Proteus vulgaris; [6]) was 0 (No growth detected or <1 colony (thus <10 cfu/mL)). The “Grade code S. aureus” value (Staphylococcus aureus; 0.5%, 3 days incubation) was 4 (1001 to 10,000 colonies (thus 10,000 cfu/mL to 100,000 cfu/mL)), the “Grade code S. aureus” value (Staphylococcus aureus; 0.5%, 14 days incubation) was 4 (1001 to 10,000 colonies (thus 10,000 cfu/mL to 100,000 cfu/mL)) and the “Grade code S. aureus” value (Staphylococcus aureus; 0.5%, 30 days incubation) was 4 (1001 to 10,000 colonies (thus 10,000 cfu/mL to 100,000 cfu/mL)). The “Grade code S. aureus” value (Staphylococcus aureus; 1.25%, 3 days incubation) was 3 (101 to 1000 colonies (thus 1000 to 10,000 cfu/mL)), the “Grade code S. aureus” value (Staphylococcus aureus; 1.25%, 14 days incubation) was 2.7 and the “Grade code S. aureus” value (Staphylococcus aureus; 1.25%, 30 days incubation) was 4 (1001 to 10,000 colonies (thus 10,000 cfu/mL to 100,000 cfu/mL)). For the same molecule, the “Grade code S. aureus” value (Staphylococcus aureus; 2.5%, 3 days incubation) was 1.7, the “Grade code S. aureus” value (Staphylococcus aureus; 2.5%, 14 days incubation) was 1 (1 to 51 colonies counted (thus 10 to 510 cfu/mL)) and the “Grade code S. aureus” value (Staphylococcus aureus; 2.5%, 30 days incubation) was 0 (No growth detected or <1 colony (thus <10 cfu/mL)). The “Grade code, S. aureus, 3 Day” value (Staphylococcus aureus; [1]) was 4 (1001 to 10,000 colonies (thus 10,000 cfu/mL to 100,000 cfu/mL)), the “Grade code, S. aureus, 3 Day” value (Staphylococcus aureus; [2]) was 3 (101 to 1000 colonies (thus 1000 to 10,000 cfu/mL)) and the “Grade code, S. aureus, 3 Day” value (Staphylococcus aureus; [3]) was 1.7. For the same molecule, the “Grade code, S. aureus, 14 Day” value (Staphylococcus aureus; [7]) was 4 (1001 to 10,000 colonies (thus 10,000 cfu/mL to 100,000 cfu/mL)), the “Grade code, S. aureus, 14 Day” value (Staphylococcus aureus; [8]) was 2.7 and the “Grade code, S. aureus, 14 Day” value (Staphylococcus aureus; [9]) was 1 (1 to 51 colonies counted (thus 10 to 510 cfu/mL)). For the same molecule, the “Grade code, S. aureus, 30 Day” value (Staphylococcus aureus; [4]) was 4 (1001 to 10,000 colonies (thus 10,000 cfu/mL to 100,000 cfu/mL)), the “Grade code, S. aureus, 30 Day” value (Staphylococcus aureus; [5]) was 4 (1001 to 10,000 colonies (thus 10,000 cfu/mL to 100,000 cfu/mL)) and the “Grade code, S. aureus, 30 Day” value (Staphylococcus aureus; [6]) was 0 (No growth detected or <1 colony (thus <10 cfu/mL)). For the same molecule, the “Grade code B. subtilis” value (Bacillus subtilis; 0.5%, 3 days incubation) was 4 (1001 to 10,000 colonies (thus 10,000 cfu/mL to 100,000 cfu/mL)), the “Grade code B. subtilis” value (Bacillus subtilis; 0.5%, 14 days incubation) was 4 (1001 to 10,000 colonies (thus 10,000 cfu/mL to 100,000 cfu/mL)) and the “Grade code B. subtilis” value (Bacillus subtilis; 0.5%, 30 days incubation) was 4 (1001 to 10,000 colonies (thus 10,000 cfu/mL to 100,000 cfu/mL)). The “Grade code B. subtilis” value (Bacillus subtilis; 1.25%, 3 days incubation) was 4 (1001 to 10,000 colonies (thus 10,000 cfu/mL to 100,000 cfu/mL)), the “Grade code B. subtilis” value (Bacillus subtilis; 1.25%, 14 days incubation) was 4 (1001 to 10,000 colonies (thus 10,000 cfu/mL to 100,000 cfu/mL)) and the “Grade code B. subtilis” value (Bacillus subtilis; 1.25%, 30 days incubation) was 4 (1001 to 10,000 colonies (thus 10,000 cfu/mL to 100,000 cfu/mL)). For the same molecule, the “Grade code B. subtilis” value (Bacillus subtilis; 2.5%, 3 days incubation) was 3 (101 to 1000 colonies (thus 1000 to 10,000 cfu/mL)), the “Grade code B. subtilis” value (Bacillus subtilis; 2.5%, 14 days incubation) was 2 (52 to 100 colonies counted (thus 520 to 1000 cfu/mL)) and the “Grade code B. subtilis” value (Bacillus subtilis; 2.5%, 30 days incubation) was 1 (1 to 51 colonies counted (thus 10 to 510 cfu/mL)). The “Grade code, B. subtilis, 3 Day” value (Bacillus subtilis; [1]) was 4 (1001 to 10,000 colonies (thus 10,000 cfu/mL to 100,000 cfu/mL)), the “Grade code, B. subtilis, 3 Day” value (Bacillus subtilis; [2]) was 4 (1001 to 10,000 colonies (thus 10,000 cfu/mL to 100,000 cfu/mL)) and the “Grade code, B. subtilis, 3 Day” value (Bacillus subtilis; [3]) was 3 (101 to 1000 colonies (thus 1000 to 10,000 cfu/mL)). For the same molecule, the “Grade code, B. subtilis, 14 Day” value (Bacillus subtilis; [7]) was 4 (1001 to 10,000 colonies (thus 10,000 cfu/mL to 100,000 cfu/mL)), the “Grade code, B. subtilis, 14 Day” value (Bacillus subtilis; [8]) was 4 (1001 to 10,000 colonies (thus 10,000 cfu/mL to 100,000 cfu/mL)) and the “Grade code, B. subtilis, 14 Day” value (Bacillus subtilis; [9]) was 2 (52 to 100 colonies counted (thus 520 to 1000 cfu/mL)). The “Grade code, B. subtilis, 30 Days” value (Bacillus subtilis; [4]) was 4 (1001 to 10,000 colonies (thus 10,000 cfu/mL to 100,000 cfu/mL)), the “Grade code, B. subtilis, 30 Days” value (Bacillus subtilis; [5]) was 4 (1001 to 10,000 colonies (thus 10,000 cfu/mL to 100,000 cfu/mL)) and the “Grade code, B. subtilis, 30 Days” value (Bacillus subtilis; [6]) was 1 (1 to 51 colonies counted (thus 10 to 510 cfu/mL)). For the same molecule, the “Grade code B. cepacia” value (Burkholderia cepacia; 0.5%, 3 days incubation) was 4 (1001 to 10,000 colonies (thus 10,000 cfu/mL to 100,000 cfu/mL)), the “Grade code B. cepacia” value (Burkholderia cepacia; 0.5%, 14 days incubation) was 4 (1001 to 10,000 colonies (thus 10,000 cfu/mL to 100,000 cfu/mL)) and the “Grade code B. cepacia” value (Burkholderia cepacia; 0.5%, 30 days incubation) was 4 (1001 to 10,000 colonies (thus 10,000 cfu/mL to 100,000 cfu/mL)). The “Grade code B. cepacia” value (Burkholderia cepacia; 1.25%, 3 days incubation) was 4 (1001 to 10,000 colonies (thus 10,000 cfu/mL to 100,000 cfu/mL)), the “Grade code B. cepacia” value (Burkholderia cepacia; 1.25%, 14 days incubation) was 2 (52 to 100 colonies counted (thus 520 to 1000 cfu/mL)) and the “Grade code B. cepacia” value (Burkholderia cepacia; 1.25%, 30 days incubation) was 4 (1001 to 10,000 colonies (thus 10,000 cfu/mL to 100,000 cfu/mL)). For the same molecule, the “Grade code B. cepacia” value (Burkholderia cepacia; 2.5%, 3 days incubation) was 0 (No growth detected or <1 colony (thus <10 cfu/mL)), the “Grade code B. cepacia” value (Burkholderia cepacia; 2.5%, 14 days incubation) was 0 (No growth detected or <1 colony (thus <10 cfu/mL)) and the “Grade code B. cepacia” value (Burkholderia cepacia; 2.5%, 30 days incubation) was 0 (No growth detected or <1 colony (thus <10 cfu/mL)). For the same molecule, the “Grade code, B. cepacia, 3 Days” value (Burkholderia cepacia; [1]) was 4 (1001 to 10,000 colonies (thus 10,000 cfu/mL to 100,000 cfu/mL)), the “Grade code, B. cepacia, 3 Days” value (Burkholderia cepacia; [2]) was 4 (1001 to 10,000 colonies (thus 10,000 cfu/mL to 100,000 cfu/mL)) and the “Grade code, B. cepacia, 3 Days” value (Burkholderia cepacia; [3]) was 0 (No growth detected or <1 colony (thus <10 cfu/mL)). For the same molecule, the “Grade code, B. cepacia, 14 Days” value (Burkholderia cepacia; [7]) was 4 (1001 to 10,000 colonies (thus 10,000 cfu/mL to 100,000 cfu/mL)), the “Grade code, B. cepacia, 14 Days” value (Burkholderia cepacia; [8]) was 2 (52 to 100 colonies counted (thus 520 to 1000 cfu/mL)) and the “Grade code, B. cepacia, 14 Days” value (Burkholderia cepacia; [9]) was 0 (No growth detected or <1 colony (thus <10 cfu/mL)). For the same molecule, the “Grade code, B. cepacia, 30 Days” value (Burkholderia cepacia; [4]) was 4 (1001 to 10,000 colonies (thus 10,000 cfu/mL to 100,000 cfu/mL)), the “Grade code, B. cepacia, 30 Days” value (Burkholderia cepacia; [5]) was 4 (1001 to 10,000 colonies (thus 10,000 cfu/mL to 100,000 cfu/mL)) and the “Grade code, B. cepacia, 30 Days” value (Burkholderia cepacia; [6]) was 0 (No growth detected or <1 colony (thus <10 cfu/mL)).
